Measurements: ChEMBL document CHEMBL5120800, “Lathyrane and Jatrophane Diterpenoids from Euphorbia helioscopia Evaluated for Cytotoxicity against a Paclitaxel-Resistant A549 Human Lung Cancer Cell Line” (J Nat Prod, 2022)

How the values were obtained:
[1] = Cytotoxicity against human A549/PTX cells assessed as inhibition of cell growth incubated for 72 hrs by MTT assay; assay type: functional, cell-based
A549 = assay: Cytotoxicity against human A549 cells assessed as inhibition of cell growth incubated for 72 hrs by MTT assay; assay type: functional, cell-based; settings: A549, 72 h

| Compound | IC50 [1] | IC50 (A549) |
| --- | --- | --- |
| CC(=O)O[C@@H]1[C@H](C)/C=C/C(C)(C)C(=O)C[C@@H](OC(=O)c2cccnc2)/C(C)=C/[C@H]2[C@@H](OC(=O)c3ccccc3)[C@H](C)C[C@]12OC(C)=O | 9.5 µM | > 10 µM |
| CC(=O)O[C@@H]1[C@H](C)/C=C/C(C)(C)C(=O)C[C@@H](OC(=O)c2ccccc2)/C(C)=C/[C@H]2[C@@H](OC(=O)c3ccccc3)[C@H](C)C[C@]12OC(C)=O [EUPHOSCOPIN C] | 6.9 µM | > 10 µM |
| CC(=O)O[C@]12C[C@@H](C)[C@H](OC(=O)c3ccccc3)[C@@H]1/C=C(\C)[C@H](OC(=O)c1ccccc1)CC(=O)C(C)(C)/C=C/[C@@H](C)C2=O | 7.2 µM | > 10 µM |
| CC(=O)O[C@H]1C(=O)[C@@]2(C)[C@H]([C@H](OC(=O)c3ccccc3)[C@]3(O)C[C@H](OC(=O)[C@H](O)[C@@H](NC(=O)c4ccccc4)c4ccccc4)C(C)=C1C3(C)C)[C@]1(OC(C)=O)CO[C@@H]1C[C@@H]2O [PACLITAXEL] | – | 0.0675 µM |
